Assay [1] deals with T1, Mitogen-activated protein kinase kinase kinase kinase 1 (Homo sapiens, UniProt Q92918). The assay is described as follows: Inhibition of HPK1 in human Jurkat E6.1 cells assessed as inhibition of SLP76 phosphorylation treated for 4 hrs by HTRF assay. It counts as cell-based. On the technique in general: TR-FRET usually uses a lanthanide donor and a delayed reading to cut background.

The target of assay [2] is T1, Mitogen-activated protein kinase kinase kinase kinase 1. Briefly: Inhibition of HPK1 (unknown origin) preincubated for 15 mins measured after 90 mins by ADP-Glo kinase assay. A general note: ADP-Glo turns the ADP formed in a reaction into a luminescent signal.
The target is the same in assay [3]. The assay is described as follows: Inhibition of full-length phosphorylated HPK1 (unknown origin).
The target in assay [4] is T2, Tyrosine-protein kinase ITK/TSK (Homo sapiens, UniProt Q08881).
T2 sequence (Q08881 whole entry): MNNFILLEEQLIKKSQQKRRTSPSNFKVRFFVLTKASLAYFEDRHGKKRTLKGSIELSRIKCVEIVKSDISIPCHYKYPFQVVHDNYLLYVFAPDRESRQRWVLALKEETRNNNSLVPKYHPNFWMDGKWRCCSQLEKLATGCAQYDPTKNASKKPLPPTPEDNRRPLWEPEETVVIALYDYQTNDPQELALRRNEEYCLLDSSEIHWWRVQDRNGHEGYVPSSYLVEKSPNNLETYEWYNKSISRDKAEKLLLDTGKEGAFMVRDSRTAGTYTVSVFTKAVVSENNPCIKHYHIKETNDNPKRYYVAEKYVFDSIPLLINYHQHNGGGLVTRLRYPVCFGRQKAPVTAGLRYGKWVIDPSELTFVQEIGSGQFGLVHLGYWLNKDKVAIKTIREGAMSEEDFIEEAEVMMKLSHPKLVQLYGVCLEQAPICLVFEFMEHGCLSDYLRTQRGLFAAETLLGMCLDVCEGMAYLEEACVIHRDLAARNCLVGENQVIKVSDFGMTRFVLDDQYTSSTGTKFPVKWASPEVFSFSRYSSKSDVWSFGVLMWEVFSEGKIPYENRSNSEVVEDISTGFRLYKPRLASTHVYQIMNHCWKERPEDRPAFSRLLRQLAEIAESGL
Briefly: Inhibition of ITK (unknown origin).

Assay [5] deals with T3, Tyrosine-protein kinase ZAP-70 (Homo sapiens, UniProt P43403).
T3 sequence (P43403 whole entry): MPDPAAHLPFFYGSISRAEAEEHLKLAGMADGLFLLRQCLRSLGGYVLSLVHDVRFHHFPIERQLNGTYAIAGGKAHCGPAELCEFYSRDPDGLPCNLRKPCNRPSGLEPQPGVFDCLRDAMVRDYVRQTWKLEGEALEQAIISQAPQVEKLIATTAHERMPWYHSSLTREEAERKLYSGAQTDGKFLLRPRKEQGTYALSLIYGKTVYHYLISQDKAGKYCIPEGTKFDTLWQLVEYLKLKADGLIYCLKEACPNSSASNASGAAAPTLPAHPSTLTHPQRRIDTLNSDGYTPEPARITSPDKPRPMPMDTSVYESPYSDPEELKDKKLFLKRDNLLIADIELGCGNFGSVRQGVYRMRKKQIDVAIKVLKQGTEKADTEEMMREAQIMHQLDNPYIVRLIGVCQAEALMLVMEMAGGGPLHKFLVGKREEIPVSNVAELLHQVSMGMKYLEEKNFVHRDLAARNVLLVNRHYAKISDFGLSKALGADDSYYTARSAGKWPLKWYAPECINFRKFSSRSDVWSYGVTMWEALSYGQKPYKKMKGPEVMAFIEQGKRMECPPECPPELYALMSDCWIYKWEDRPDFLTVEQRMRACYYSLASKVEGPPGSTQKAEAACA
The assay is described as follows: Inhibition of ZAP70 (unknown origin).

Assay [6] deals with T1, Mitogen-activated protein kinase kinase kinase kinase 1. Briefly: Inhibition of full-length unphosphorylated HPK1 (unknown origin) by scintillation proximity assay. (Scintillation proximity formats need no separation of bound from free tracer.)
Assay [7] addresses Tyrosine-protein kinase Lck (Homo sapiens, UniProt P06239). The assay is described as follows: Inhibition of LCK (unknown origin).

Structures are written as SMILES. Some results are limits rather than exact numbers.

The record followed here is ChEMBL document CHEMBL5137050, “Hematopoietic Progenitor Kinase 1 in Tumor Immunology: A Medicinal Chemistry Perspective” (J Med Chem, 2022).

T1 sequence (Q92918 whole entry): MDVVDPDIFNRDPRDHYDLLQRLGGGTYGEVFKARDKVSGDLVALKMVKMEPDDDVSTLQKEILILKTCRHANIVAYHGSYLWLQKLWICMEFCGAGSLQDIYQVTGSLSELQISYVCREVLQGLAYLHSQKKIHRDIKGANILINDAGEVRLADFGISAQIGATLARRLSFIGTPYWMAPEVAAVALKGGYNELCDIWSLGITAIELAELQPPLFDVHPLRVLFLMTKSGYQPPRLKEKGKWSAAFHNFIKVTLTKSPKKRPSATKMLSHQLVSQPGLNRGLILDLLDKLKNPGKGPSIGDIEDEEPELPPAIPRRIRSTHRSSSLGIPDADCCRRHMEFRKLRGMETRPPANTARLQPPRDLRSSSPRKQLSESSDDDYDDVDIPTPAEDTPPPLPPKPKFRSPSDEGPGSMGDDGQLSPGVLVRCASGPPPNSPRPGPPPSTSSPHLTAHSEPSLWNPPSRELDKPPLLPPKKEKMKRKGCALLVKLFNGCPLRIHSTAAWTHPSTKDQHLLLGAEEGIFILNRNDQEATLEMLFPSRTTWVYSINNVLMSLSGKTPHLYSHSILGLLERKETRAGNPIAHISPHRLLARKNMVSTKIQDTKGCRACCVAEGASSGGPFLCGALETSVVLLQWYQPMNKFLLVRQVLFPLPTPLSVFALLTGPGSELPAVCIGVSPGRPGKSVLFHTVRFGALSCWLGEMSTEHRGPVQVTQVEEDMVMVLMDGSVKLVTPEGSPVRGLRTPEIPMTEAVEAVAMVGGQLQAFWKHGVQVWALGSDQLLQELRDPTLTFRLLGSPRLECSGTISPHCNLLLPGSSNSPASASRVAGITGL
Tyrosine-protein kinase Lck, sequence (P06239 whole entry): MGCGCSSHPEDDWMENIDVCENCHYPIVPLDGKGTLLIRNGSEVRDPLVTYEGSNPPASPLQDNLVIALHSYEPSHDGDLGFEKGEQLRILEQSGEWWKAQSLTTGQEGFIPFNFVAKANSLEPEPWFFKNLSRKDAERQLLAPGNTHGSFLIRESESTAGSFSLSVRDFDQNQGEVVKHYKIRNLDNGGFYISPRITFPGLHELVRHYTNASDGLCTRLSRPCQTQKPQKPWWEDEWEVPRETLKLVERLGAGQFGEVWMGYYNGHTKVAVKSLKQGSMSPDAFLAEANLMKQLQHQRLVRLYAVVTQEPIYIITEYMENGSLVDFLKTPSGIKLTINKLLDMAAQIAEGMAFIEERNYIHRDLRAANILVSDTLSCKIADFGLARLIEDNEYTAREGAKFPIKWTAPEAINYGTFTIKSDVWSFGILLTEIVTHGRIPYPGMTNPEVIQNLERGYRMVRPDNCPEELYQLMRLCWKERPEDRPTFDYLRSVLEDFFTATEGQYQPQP

As for `CN1CCC(c2ncc(-c3cnc(N)c(OCc4cccc(C#CC(C)(C)O)c4)c3)s2)CC1`, the results for the IC50 in assay [1] and in assay [2] were less than 1000 nM and less than 100 nM, respectively.
On to `Cc1[nH]c2nnc(C)n2c(=O)c1CC(=O)Nc1ncc(Cc2ccccc2F)s1`, for which the half-maximal inhibitory concentration (IC50) (in general, the midpoint of a concentration-inhibition curve) was 29 µM in assay [3]; greater than 49.5 µM in assay [4]; greater than 49.5 µM in assay [5]; 1200 nM in assay [6]; greater than 49.5 µM in assay [7].
